Activity calls are given as the source filed them.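 The calls were made as follows: active = AC50, the dose giving half-maximal effect, exceeds a fixed cutoff for a compound that rescues yeast growth under heat; inactive = the rest, inconclusive results apart.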

In this experiment the test system is S. cerevisiae Burl-1 ts mutant growth, BacTiter-Glo, 38.5C 24 h. The experiment is described as follows: growth induction of Burl-1 ts yeast mutant, dose response, counter-screen for SUMOylation pathway inhibitor project, whole organism, S. cerevisiae, luminescence (AID 463199). (The purpose of a counterscreen is to sort out artefacts and off-target activity.)
The AC50 is the midpoint of the concentration-response curve, whichever way the signal moves. Regarding `O=C1CCc2cc(S(=O)(=O)N3CCC(C(=O)NC4CCCC4)CC3)ccc2N1`, the AC50 was > 42 µM (inactive).

As to `CC1(C)CC(=O)c2cnc(NC(=O)CSc3nc4ccccc4o3)nc2C1`, the AC50 was > 42 µM (inactive).

Consider `Cc1ccc(-c2nc(CS(=O)(=O)CC(=O)NC3CCCCC3C)c(C)o2)cc1` (configuration not stated), for which the AC50 is > 42 µM (inactive).

For `O=C(c1cc(N2C(=O)C3C4CCC(C4)C3C2=O)ccc1Cl)N1CCN(c2ccccc2)CC1` (configuration not stated), the AC50 is > 42 µM (inactive).

With `CC(C)[N+]1(C)[C@@H]2CC[C@@H]1CC(OC(=O)C(CO)c1ccccc1)C2` (some centres not stated), the AC50 is > 42 µM (inactive).

`Cc1cc(C(=O)OCC(=O)Nc2cccc(S(N)(=O)=O)c2)c2ccccc2n1`: the AC50 is > 42 µM (inactive).

Take `COc1cc([N+](=O)[O-])cc(/C=N/NC(=O)c2cc(C)nc3ccccc23)c1O`: the AC50 was > 42 µM (inactive).

For the compound `Cc1ccc(NC(=O)Cn2nnc(C(=O)NCc3ccc4c(c3)OCO4)c2N)cc1`, the AC50 was > 42 µM (inactive).

Regarding `Cc1cc(C)cc(C(=O)NC(CC(N)=O)c2ccc(NCCN3CCOCC3)c([N+](=O)[O-])c2)c1` (configuration not stated), the AC50 is > 42 µM (inactive).

With `Cc1ccc(NC(=S)NNC(=O)c2ccc(N3CCOCC3)c([N+](=O)[O-])c2)cc1C`, the AC50 is > 42 µM (inactive).

In the case of `CCCCn1c(SCC(=O)Nc2cc(C)on2)nnc1-c1ccco1`, the AC50 is > 42 µM (inactive).

As for `CC(C)CC(c1nnnn1C1CCCCC1)N1CCN(C(=O)c2ccco2)CC1` (configuration not stated), the AC50 is > 42 µM (inactive).

Take `CN(CC(=O)Nc1sccc1C#N)Cc1ccccc1`: the AC50 is > 42 µM (inactive).

Consider `CCOC(=O)Cc1csc(NC(=O)NC2(C(F)(F)F)Oc3ccccc3O2)n1`, for which the AC50 is > 42 µM (inactive).

Turning to `Cc1ccc(C)n1-c1ccc(N(C)C)cc1`, the AC50 is > 42 µM (inactive).

In the case of `CCOC(=O)c1c(C)[nH]c(C(=O)COC(=O)c2ccncc2)c1C`, the AC50 is > 42 µM (inactive).

As to `Cc1nc2sc(C(c3ccco3)N3CCOCC3)c(O)n2n1` (configuration not stated), the AC50 was > 42 µM (inactive).

Take `O=C(NC1CCCCC1)C(c1ccncc1)N(Cc1ccc2c(c1)OCO2)C(=O)C(F)(F)F` (configuration not stated): the AC50 is > 42 µM (inactive).

Regarding `CCN(CC)c1ccc(N=Cc2c(O)n(Cc3ccccc3)c(=O)[nH]c2=O)cc1`, the AC50 was > 42 µM (inactive).

For the compound `O=C(O)CN(c1ccccn1)S(=O)(=O)c1ccc(Cl)cc1`, the AC50 is > 42 µM (inactive).

In the case of `CCn1cc(C(=O)NCc2ccccn2)c(=O)c2cc(F)c(N3CCN(C)CC3)cc21`, the AC50 was > 42 µM (inactive).

`CN(C)C(=O)c1coc2nc3ccccc3nc12`: the AC50 is > 42 µM (inactive).

For `O=C(CCl)N(Cc1cc(=O)[nH]c2ccccc12)c1ccccc1`, the AC50 was > 42 µM (inactive).

As to `CN1CCCC(n2nc(Cc3ccc(Cl)cc3)c3ccccc3c2=O)CC1` (configuration not stated), the AC50 is > 42 µM (inactive).

Consider `CCc1ccc(N2C(=O)CC(N3CCC(C(=O)OC)CC3)C2=O)cc1` (configuration not stated), for which the AC50 was > 42 µM (inactive).

In the case of `COc1cccc(OC)c1OCC(O)CN1CCN(c2ccccc2)CC1` (configuration not stated), the AC50 was > 42 µM (inactive).

Consider `CS(=O)(=O)N(CC(=O)NCCSCc1ccccc1)c1ccc2c(c1)OCO2`, for which the AC50 was > 42 µM (inactive).

As to `Cc1ccc(C(=O)NC(Cc2c[nH]c3ccccc23)C(=O)O)o1` (configuration not stated), the AC50 is > 42 µM (inactive).

Take `Cc1cc(Cl)c2oc(C(=O)NC3CCC(O)CC3)c(C)c2c1` (configuration not stated): the AC50 was > 42 µM (inactive).

On to `N#CCSc1nc2c(c(C3CC=CCC3)c1C#N)CCC2` (configuration not stated), for which the AC50 was > 42 µM (inactive).

Turning to `Fc1cccc(Nc2ncnc3sccc23)c1`, the AC50 is > 42 µM (inactive).

On to `Cn1c(C(=O)NCCc2ccsc2)cc2c(=O)n(C)c3ccccc3c21`, for which the AC50 is > 42 µM (inactive).

Consider `C/C(=N/Nc1ccc(F)cc1)c1ccc(Cl)s1`, for which the AC50 is > 42 µM (inactive).

`Cc1cc(C)cc(N(CC(=O)Nc2cccc(C)n2)S(=O)(=O)c2c(C)noc2C)c1`: the AC50 was > 42 µM (inactive).

Regarding `c1ccc2[nH]c(CSc3nccs3)nc2c1`, the AC50 is > 42 µM (inactive).

`COc1ccc(CNS(=O)(=O)c2ccc3c(c2)CCN3C(=O)C2CCC2)cc1`: the AC50 is > 42 µM (inactive).

Consider `CN(C)C(=O)c1c2c(nc3ccccc13)CCCC2`, for which the AC50 was > 42 µM (inactive).

On to `CCCCc1ccc(NC(=S)NCc2cccs2)cc1`, for which the AC50 is > 42 µM (inactive).

For the compound `N#CCN(N=Nc1ccccc1)c1ccccc1`, the AC50 is > 42 µM (inactive).

`CCCN1C(=O)c2ccc(C(=O)Nc3nccs3)cc2C1=O`: the AC50 was > 42 µM (inactive).

Take `CCOc1ccc(Br)cc1S(=O)(=O)N1CCC(C(N)=O)CC1`: the AC50 was > 42 µM (inactive).

On to `COc1ccccc1N1CCN(C(=O)c2ccc(N3CCCCS3(=O)=O)cc2)CC1`, for which the AC50 is > 42 µM (inactive).

Consider `NNC(=O)c1oc2nc(-c3ccccc3)cc(-c3ccccc3)c2c1N`, for which the AC50 was > 42 µM (inactive).

Consider `CCn1cc(CCCC(=O)NCc2ccccc2OC)c2ccccc21`, for which the AC50 is > 42 µM (inactive).

With `Cc1ccc(C(=O)NNc2ncnc3c2cnn3C)cc1`, the AC50 is > 42 µM (inactive).

In the case of `CCN(CC)S(=O)(=O)c1ccc(NC(=O)C(C)N(c2ccccc2)S(C)(=O)=O)cc1` (configuration not stated), the AC50 was > 42 µM (inactive).

Turning to `CN(CCOc1ccc(-c2ccn(S(=O)(=O)c3cccc4ccccc34)n2)cc1)c1ccccn1`, the AC50 is > 42 µM (inactive).

For the compound `COc1ccc(CCNC(=O)C/C(C)=N/NC(=O)COc2ccc(C)cc2Br)cc1OC`, the AC50 was > 42 µM (inactive).

On to `CCCOC(=O)c1c(NC(=O)/C=C/c2cnn(C)c2C)sc(C(=O)OC)c1C`, for which the AC50 was > 42 µM (inactive).

With `O=C1CN(C(=O)c2c(F)cccc2F)C(c2ccc(F)cc2)c2cc(F)ccc2N1` (configuration not stated), the AC50 was > 42 µM (inactive).

As to `CC(=O)c1cccc(NC(=O)CN(c2cccc(F)c2)S(C)(=O)=O)c1`, the AC50 was > 42 µM (inactive).

Regarding `COc1ccccc1OCCCn1cc(C#N)c2ccccc21`, the AC50 is > 42 µM (inactive).

Regarding `C=CCn1cc(C(C)=O)c(=O)[nH]c1=O`, the AC50 was > 42 µM (inactive).

Regarding `O=c1c2c3c(sc2n2cnnc2n1-c1ccccc1)N(Cc1ccccc1)CCC3`, the AC50 was > 42 µM (inactive).

Take `COc1cccc(NC(=O)CN2CCN(c3ccccc3F)CC2)c1`: the AC50 is > 42 µM (inactive).

As to `O=[N+]([O-])c1cncc([N+](=O)[O-])c1Nc1ccccc1Cl`, the AC50 was > 42 µM (inactive).

Take `COc1ccc(C(=O)N/C(=C\c2cn(C)c3ccccc23)C(=O)OCCN(C)C)cc1`: the AC50 was > 42 µM (inactive).

For the compound `O=C(CN1c2ccccc2Sc2ccccc21)N/N=C/c1ccc(Cl)cc1Cl`, the AC50 is > 21 µM (inactive).

Consider `Cc1ccc(S(=O)(=O)NCc2ccc(C(=O)N3CCN(c4ccccn4)CC3)cc2)cc1`, for which the AC50 is > 42 µM (inactive).

With `COC(=O)c1ccc(Cl)c(NC(=O)CN(c2ccc(OC)c(OC)c2)S(C)(=O)=O)c1`, the AC50 was > 42 µM (inactive).

As for `COc1ccc(-c2csc(NC(=O)C3CSC4(C)CCC(=O)N34)n2)cc1` (configuration not stated), the AC50 is > 42 µM (inactive).

Regarding `COc1ccc(N2C(=O)CCC(C(=O)NCc3cccnc3)C2c2ccc(OC)c(OC)c2)cc1` (configuration not stated), the AC50 is > 42 µM (inactive).

(Values after PubChem BioAssay AID463199 (Broad Institute, 2010).)
